In US9994547B2, “Heteroarylamide inhibitors of TBK1” (Takeda Pharmaceutical Company Limited, priority 2014, dated 2018):

Molecular target: Full length human TBK1 (Homo sapiens (Human), UniProt Q9UHD2)
Experiment: Inhibition of TBK1 Enzyme (Example A)
Format: biochemical
Conditions: -log(IC50), IC50 molar, 3 nM TBK1, 25 μM ATP, 60 min RT; for IC50: read-out: TBK1 Inhibition (pIC50) (converted)
Method in brief: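 Full-length N-His human TBK1 from Sf9 baculovirus was tested with 11-point 2.5-fold dilutions (1% DMSO) in Hepes pH 7.4, MgCl2, EDTA, Brij, DTT. After 60 min RT and EDTA quench, microfluidic conversion was fitted and reported as pIC50.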

Chain of Full length human TBK1 (Q9UHD2 whole entry): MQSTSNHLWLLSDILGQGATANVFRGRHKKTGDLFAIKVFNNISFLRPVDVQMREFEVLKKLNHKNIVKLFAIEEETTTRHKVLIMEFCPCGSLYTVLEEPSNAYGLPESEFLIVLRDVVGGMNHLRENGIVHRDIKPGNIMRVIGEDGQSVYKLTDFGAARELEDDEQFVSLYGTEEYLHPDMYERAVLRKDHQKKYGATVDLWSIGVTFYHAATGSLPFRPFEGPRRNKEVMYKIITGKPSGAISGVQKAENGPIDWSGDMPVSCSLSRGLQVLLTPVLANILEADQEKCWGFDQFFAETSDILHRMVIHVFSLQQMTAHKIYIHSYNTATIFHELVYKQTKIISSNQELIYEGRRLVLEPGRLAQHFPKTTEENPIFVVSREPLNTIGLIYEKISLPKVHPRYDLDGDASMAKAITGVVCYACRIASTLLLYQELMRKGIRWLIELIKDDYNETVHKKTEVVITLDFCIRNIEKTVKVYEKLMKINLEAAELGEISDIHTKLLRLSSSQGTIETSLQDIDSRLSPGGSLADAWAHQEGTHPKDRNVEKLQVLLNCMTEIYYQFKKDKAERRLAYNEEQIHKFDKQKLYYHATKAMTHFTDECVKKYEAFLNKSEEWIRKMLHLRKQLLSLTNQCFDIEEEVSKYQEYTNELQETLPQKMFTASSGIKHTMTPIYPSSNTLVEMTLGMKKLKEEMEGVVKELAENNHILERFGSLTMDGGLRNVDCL

SMILES	TBK1 Inhibition (pIC50)	IC50 [nM]
CN(C)C(=O)[C@H](CC(F)F)Nc1cc(-c2cnc(NC(=O)C3CC3)cn2)cnc1C#N [Example 80, (S)-N-(5-(6-cyano-5-((1-(dimethylamino)-4,4-difluoro-1-oxobutan-2-yl)amino)pyridin-3-yl)pyrazin-2-yl)cyclopropanecarboxamide]	7.4	–
C[C@H](Nc1cc(-c2cnc(NC(=O)C3CC3)cn2)cnc1C#N)C(=O)N1CCOC[C@@H]1C#N [Example 81, N-(5-(6-cyano-5-(((S)-1-((S)-3-cyanomorpholino)-1-oxopropan-2-yl)amino)pyridin-3-yl)pyrazin-2-yl)cyclopropanecarboxamide]	7.8	–
COCCN(CC(F)F)C(=O)CNc1cc(-c2cnc(NC(=O)C3CC3)cn2)cnc1C#N [Example 82, N-(5-(6-cyano-5-((2-((2,2-difluoroethyl)(2-methoxyethyl)amino)-2-oxoethyl)amino)pyridin-3-yl)pyrazin-2-yl)cyclopropanecarboxamide]	7.8	–
C[C@@H](Nc1cc(-c2cnc(NC(=O)C3CC3)cn2)cnc1C#N)C(=O)N(C)CC(F)F [Example 83, (R)-N-(5-(6-cyano-5-((1-((2,2-difluoroethyl)(methyl)amino)-1-oxopropan-2-yl)amino)pyridin-3-yl)pyrazin-2-yl)cyclopropanecarboxamide]	7.0	–
C[C@H]1COCCN1C(=O)CNc1cc(-c2cnc(NC(=O)C3CC3)cn2)cnc1C#N [Example 84, (S)-N-(5-(6-cyano-5-((2-(3-methylmorpholino)-2-oxoethyl)amino)pyridin-3-yl)pyrazin-2-yl)cyclopropanecarboxamide]	7.2	–
CN(CCF)C(=O)C(CC(F)F)Nc1cc(-c2cnc(NC(=O)C3CC3)cn2)cnc1C#N (stereo not shown) [Example 85, N-(5-(6-cyano-5-((4,4-difluoro-1-((2-fluoroethyl)(methyl)amino)-1-oxobutan-2-yl)amino)pyridin-3-yl)pyrazin-2-yl)cyclopropanecarboxamide]	7.1	–
CC1CC1C(=O)Nc1cnc(-c2cnc(C#N)c(N[C@@H](C)C(=O)N(C)CC(F)F)c2)cn1 (stereo partly drawn) [Example 86, N-(5-(6-cyano-5-(((S)-1-((2,2-difluoroethyl)(methyl)amino)-1-oxopropan-2-yl)amino)pyridin-3-yl)pyrazin-2-yl)-2-methylcyclopropanecarboxamide]	8.4	–
N#CCN(CCO)C(=O)CNc1cc(-c2cnc(NC(=O)C3CC3)cn2)cnc1C#N [Example 87, N-(5-(6-cyano-5-((2-((cyanomethyl)(2-hydroxyethyl)amino)-2-oxoethyl)amino)pyridin-3-yl)pyrazin-2-yl)cyclopropanecarboxamide]	7.2	–
C[C@H](Nc1cc(-c2cnc(NC(=O)C3CC3)cn2)cnc1C#N)C(=O)N(C)[C@H](C)C#N [Example 88, N-(5-(6-cyano-5-(((S)-1-(((R)-1-cyanoethyl)(methyl)amino)-1-oxopropan-2-yl)amino)pyridin-3-yl)pyrazin-2-yl)cyclopropanecarboxamide]	7.6	–
C[C@H](Nc1cc(-c2cnc(NC(=O)C3CC3)cn2)cnc1C#N)C(=O)N(C)[C@@H](C)C#N [Example 89, N-(5-(6-cyano-5-(((S)-1-(((S)-1-cyanoethyl)(methyl)amino)-1-oxopropan-2-yl)amino)pyridin-3-yl)pyrazin-2-yl)cyclopropanecarboxamide]	7.9	–
N#Cc1ncc(-c2cnc(NC(=O)C3CC3)cn2)cc1NCC(=O)N(CCCO)CC(F)(F)F [Example 90, N-(5-(6-cyano-5-((2-((3-hydroxypropyl)(2,2,2-trifluoroethyl)amino)-2-oxoethyl)amino)pyridin-3-yl)pyrazin-2-yl)cyclopropanecarboxamide]	5.6	–
C[C@H](Nc1cc(-c2cnc(NC(=O)C3CC3)cn2)cnc1C#N)C(=O)N1CCOC[C@@H]1C [Example 91, N-(5-(6-cyano-5-(((S)-1-((S)-3-methylmorpholino)-1-oxopropan-2-yl)amino)pyridin-3-yl)pyrazin-2-yl)cyclopropanecarboxamide]	7.7	–
CCC(C#N)N(C)C(=O)CNc1cc(-c2cnc(NC(=O)C3CC3)cn2)cnc1C#N (stereo not shown) [Example 92, N-(5-(6-cyano-5-((2-((1-cyanopropyl)(methyl)amino)-2-oxoethyl)amino)pyridin-3-yl)pyrazin-2-yl)cyclopropanecarboxamide]	6.2	–
C[C@H](Nc1cc(-c2cnc(NC(=O)C3CC3)cn2)cnc1C#N)C(=O)N(CC#N)CCO [Example 93, (S)-N-(5-(6-cyano-5-((1-((cyanomethyl)(2-hydroxyethyl)amino)-1-oxopropan-2-yl)amino)pyridin-3-yl)pyrazin-2-yl)cyclopropanecarboxamide]	6.8	–
N#Cc1ncc(-c2cnc(NC(=O)C3CC3)cn2)cc1NCC(=O)N1CCC1C(F)(F)F (stereo not shown) [Example 94, N-(5-(6-cyano-5-((2-oxo-2-(2-(trifluoromethyl)azetidin-1-yl)ethyl)amino)pyridin-3-yl)pyrazin-2-yl)cyclopropanecarboxamide]	7.3	–
N#Cc1ncc(-c2cnc(NC(=O)C3CC3)cn2)cc1NCC(=O)N1CCO[C@@H]1C(F)(F)F [Example 95, (R)-N-(5-(6-cyano-5-((2-oxo-2-(2-(trifluoromethyl)oxazolidin-3-yl)ethyl)amino)pyridin-3-yl)pyrazin-2-yl)cyclopropanecarboxamide]	–	631
N#Cc1ncc(-c2cnc(NC(=O)C3CC3)cn2)cc1NCC(=O)N1CCO[C@H]1C(F)(F)F [Example 96, (S)-N-(5-(6-cyano-5-((2-oxo-2-(2-(trifluoromethyl)oxazolidin-3-yl)ethyl)amino)pyridin-3-yl)pyrazin-2-yl)cyclopropanecarboxamide]	–	15.8
CN1CCN(C(=O)CNc2cc(-c3cnc(NC(=O)C4CC4)cn3)cnc2C#N)CC1 [Example 97, N-(5-(6-cyano-5-((2-(4-methylpiperazin-1-yl)-2-oxoethyl)amino)pyridin-3-yl)pyrazin-2-yl)cyclopropanecarboxamide]	5.5	–
COCCN1CCN(C(=O)CNc2cc(-c3cnc(NC(=O)C4CC4)cn3)cnc2C#N)CC1 [Example 98, N-(5-(6-cyano-5-((2-(4-(2-methoxyethyl)piperazin-1-yl)-2-oxoethyl)amino)pyridin-3-yl)pyrazin-2-yl)cyclopropanecarboxamide]	5.1	–
CC(=O)N1CCN(C(=O)CNc2cc(-c3cnc(NC(=O)C4CC4)cn3)cnc2C#N)CC1 [Example 99, N-(5-(5-((2-(4-acetylpiperazin-1-yl)-2-oxoethyl)amino)-6-cyanopyridin-3-yl)pyrazin-2-yl)cyclopropanecarboxamide]	6.0	–
N#Cc1ncc(-c2cnc(NC(=O)C3CC3)cn2)cc1NCC(=O)N1CCOC(C(F)(F)F)C1 (stereo not shown) [Example 100, N-(5-(6-cyano-5-((2-oxo-2-(2-(trifluoromethyl)morpholino)ethyl)amino)pyridin-3-yl)pyrazin-2-yl)cyclopropanecarboxamide]	6.5	–
N#Cc1ncc(-c2cnc(NC(=O)C3CC3)cn2)cc1NCC(=O)N1CCOC[C@@H]1C(F)(F)F [Example 101, (R)-N-(5-(6-cyano-5-((2-oxo-2-(3-(trifluoromethyl)morpholino)ethyl)amino)pyridin-3-yl)pyrazin-2-yl)cyclopropanecarboxamide]	–	200
